This note sets out measurements from patent US11214803B2, “Modulators of YAP1 expression” (Ionis Pharmaceuticals, Inc., priority 2019, dated 2022).

Strand notation (5' to 3'): a small letter for the sugar, then the base; units joined by * are phosphorothioate-linked, units joined directly phosphodiester-linked; [ ] holds rarer units or linkages, { } end groups; capitals alone tell only the bases. k = constrained ethyl (cEt); [5mC] = 5-methylcytosine; d = 2'-deoxy (DNA)

The subject of the first data set is Yap1 mRNA. In words: Antisense inhibition of human Yap1 in A-431 cells by cEt gapmers, single dose (Example 3, RTS36584). It is filed as cell-based. The conditions noted are these: Table 26; Yap1 mRNA by 3-10-3 cEt gapmers targeting SEQ ID NO.: 1, and 2; percent of untreated control. The procedure, abridged: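 Read-out is Yap1 mRNA as percent of untreated control, by quantitative RT-PCR normalized to total RNA (RiboGreen). Cells (A-431) received 2,000 nM of 3-10-3 cEt phosphorothioate gapmer via free uptake for roughly 48 hours.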
As for “1075020 (antisense kT*kT*kA*dA*dT*dT*dA*dG*d[5mC]*dA*dT*dT*dA*kG*kA*kG) [compound 1075020]”, the “YAP1 (% UTC)” value was 30 % UTC. Still for that read-out and setting: for “1075116 (k[5mC]*kT*kT*dA*dA*d[5mC]*dA*dT*dT*dT*dA*dA*dT*kG*kG*k[5mC]; antisense) [compound 1075116]” the value was 15 % UTC.

The same data set, now with this note: Table 27; Yap1 mRNA by 3-10-3 cEt gapmers targeting SEQ ID NO.: 1, and 2; percent of untreated control.
Consider “1074989 (antisense kG*kA*kG*dG*dG*dA*dA*dA*dG*d[5mC]*dA*d[5mC]*dG*k[5mC]*k[5mC]*k[5mC]) [compound 1074989]”, for which the “YAP1 (% UTC)” value was 105 % UTC.

“1075021 (antisense kT*kT*kA*d[5mC]*dA*dA*d[5mC]*d[5mC]*dT*dA*dG*dA*dT*kT*kT*kG) [compound 1075021]”: the “YAP1 (% UTC)” value is 68 % UTC.

Turning to “1075085 (antisense kT*kG*k[5mC]*dG*dG*dA*dA*dA*d[5mC]*dA*dA*dG*dT*kG*kT*kA) [compound 1075085]”, the “YAP1 (% UTC)” value came to 11 % UTC. Same read-out and setting: for “1075117 (k[5mC]*k[5mC]*kT*d[5mC]*dA*dA*dT*dA*dG*d[5mC]*dA*dA*dG*kA*k[5mC]*kA; antisense) [compound 1075117]” the value was 48 % UTC.

The data set is the same for the next values; noted with them: Table 28; Yap1 mRNA as percent of untreated control; 3-10-3 cEt gapmers targeting SEQ ID NO.: 1, and 2.
As to “1074990 (antisense kG*k[5mC]*k[5mC]*dG*d[5mC]*dA*dA*dA*dG*dG*dA*dA*dA*kG*kG*kG) [compound 1074990]”, the “YAP1 (% UTC)” value was determined as 108 % UTC. For the substance “1075022 (antisense kA*kT*kT*dT*dA*d[5mC]*dA*dA*d[5mC]*d[5mC]*dT*dA*dG*kA*kT*kT) [compound 1075022]”, the “YAP1 (% UTC)” value was determined as 91 % UTC. For “1075054 (antisense k[5mC]*kA*kA*dT*dA*dT*dA*dT*dA*d[5mC]*dT*dT*dG*kA*kT*k[5mC]) [compound 1075054]”, the “YAP1 (% UTC)” value amounted to 48 % UTC.

As to “1075086 (antisense kA*kG*kT*dT*dA*dT*dA*dG*dA*d[5mC]*dT*dT*dT*kG*kT*kA) [compound 1075086]”, the “YAP1 (% UTC)” value worked out at 25 % UTC.

The same data set, now with this note: Table 29; Yap1 mRNA as percent of untreated control; 3-10-3 cEt gapmers targeting SEQ ID NO.: 1, and 2.
“1074991 (antisense kA*kA*kT*dT*dA*dT*dT*dT*dG*dA*d[5mC]*dT*d[5mC]*k[5mC]*k[5mC]*k[5mC]) [compound 1074991]”: the “YAP1 (% UTC)” value was 60 % UTC.

As to “1075023 (antisense kG*kT*kA*dT*dT*dT*dA*d[5mC]*dA*dA*d[5mC]*d[5mC]*dT*kA*kG*kA) [compound 1075023]”, the “YAP1 (% UTC)” value is 18 % UTC. With “1075087 (antisense kT*k[5mC]*kT*d[5mC]*dA*dA*dT*dA*dA*dG*dT*dT*dA*kT*kA*kG) [compound 1075087]”, the “YAP1 (% UTC)” value stood at 39 % UTC.

As to “1075119 (kA*kG*kG*dG*dA*dA*dT*dA*dT*dG*dT*dT*dA*kA*kT*k[5mC]; antisense) [compound 1075119]”, the “YAP1 (% UTC)” value amounted to 8 % UTC.

Staying with this data set, now noted: Table 34; Yap1 mRNA as percent of untreated control; 3-10-3 cEt gapmers targeting SEQ ID NO: 1 and 2; single dose.
With “1074996 (antisense kA*kA*kT*dA*dA*dA*dT*dG*d[5mC]*dT*dT*dA*d[5mC]*kG*kG*kG) [compound 1074996]”, the “YAP1 (% UTC)” value is listed as 60 % UTC.

Turning to “1075028 (antisense kA*kA*kA*dA*dA*dT*d[5mC]*dA*dA*dG*d[5mC]*d[5mC]*d[5mC]*kT*k[5mC]*kG) [compound 1075028]”, the “YAP1 (% UTC)” value came to 103 % UTC. Same read-out and setting: with “1075060 (antisense kG*kT*kT*dT*dA*dA*d[5mC]*dA*dA*dT*d[5mC]*dT*d[5mC]*k[5mC]*k[5mC]*k[5mC]) [compound 1075060]” the figure was 70 % UTC; with “1075092 (kT*kT*kA*dA*dA*dA*d[5mC]*dA*dA*d[5mC]*dG*dA*dA*kT*kG*kA; antisense) [compound 1075092]”, 63 % UTC; with “1075124 (kG*kT*kA*dA*dA*dA*dA*d[5mC]*d[5mC]*dT*dG*dG*dG*kT*kT*kT; antisense) [compound 1075124]”, 58 % UTC.

Staying with this data set, now noted: Table 35; Yap1 mRNA as percent of untreated control; 3-10-3 cEt gapmers targeting SEQ ID NO: 1 and 2; single dose.
For the substance “1074997 (antisense kG*k[5mC]*k[5mC]*dG*d[5mC]*dG*dA*dG*dG*dA*dA*dA*dA*kT*kA*kA) [compound 1074997]”, the “YAP1 (% UTC)” value amounted to 119 % UTC. For the substance “1075029 (antisense kA*kT*kA*dT*dT*d[5mC]*dG*dA*d[5mC]*dA*d[5mC]*dT*dG*kG*kA*kG) [compound 1075029]”, the “YAP1 (% UTC)” value is recorded as 33 % UTC.
